Data as given in patent US9078845B2, “Anti-microbial agent” (priority 2005, dated 2015).

What was measured:
Pseudomonas aeruginosa = assay: suspension test; format: cell-based; conditions: after 30 mins
Method: The compositions were tested for antimicrobial activity using the suspension test in Example 3 outlined at room temperature against the following organisms:
The anti-microbial activity of a-linolenic acid and terpinen-4-ol separately and in combination were tested using the suspension test as outlined in Example 3 above.

Morazella Catarrhalis = conditions: 48 hours at 37° C.
[1] = tested on: Salmonella cholerae-suis ATCC 10708; assay: Minimum Inhibitory Concentration Test (broth dilution, turbidity); format: cell-based; conditions: 48 hours at 37° C.
[2] = tested on: Escherichia coli ATCC 8739; conditions: 48 hours at 37° C.
[3] = tested on: Streptococcus pyogenes University of Melbourne MDU; conditions: 48 hours at 37° C.
[4] = tested on: Methicillin Resistant Staphylococcus Wild Strain; conditions: 48 hours at 37° C.
[5] = tested on: Staphylococcus aureus ATCC 6538; conditions: 48 hours at 37° C.
[6] = dilution 1:100 in Tryptone Soya broth
[7] = dilution 1:200 in Tryptone Soya broth
[8] = dilution 1:400 in Tryptone Soya broth
[9] = dilution 1:800 in Tryptone Soya broth
[10] = dilution 1:1600 in Tryptone Soya broth
[11] = dilution 1:3200 in Tryptone Soya broth
[12] = dilution 1:6400 in Tryptone Soya broth
[13] = dilution 1:12800 in Tryptone Soya broth
[14] = dilution 1:25600 in Tryptone Soya broth
[15] = dilution 1:51200 in Tryptone Soya broth
[16] = dilution 1:102400 in Tryptone Soya broth

CC1=CCC(O)(C(C)C)CC1 (stereo not drawn) [terpinen-4-ol]
reduction in the survival of P. aeruginosa (Pseudomonas aeruginosa): 1 log10

CC/C=C\C/C=C\C/C=C\CCCCCCCC(=O)O [α-linolenic acid]
reduction in the survival of P. aeruginosa (Pseudomonas aeruginosa): 1 log10
Growth (turbidity) at Dilution 1:100 (Morazella Catarrhalis; [6]): −
Growth (turbidity) at Dilution 1:200 (Morazella Catarrhalis; [7]): −
Growth (turbidity) at Dilution 1:400 (Morazella Catarrhalis; [8]): −
Growth (turbidity) at Dilution 1:800 (Morazella Catarrhalis; [9]): −
Growth (turbidity) at Dilution 1:1600 (Morazella Catarrhalis; [10]): −
Growth (turbidity) at Dilution 1:3200 (Morazella Catarrhalis; [11]): −
Growth (turbidity) at Dilution 1:6400 (Morazella Catarrhalis; [12]): −
Growth (turbidity) at Dilution 1:12800 (Morazella Catarrhalis; [13]): +
Growth (turbidity) at Dilution 1:25600 (Morazella Catarrhalis; [14]): +
Growth (turbidity) at Dilution 1:51200 (Morazella Catarrhalis; [15]): +
Growth (turbidity) at Dilution 1:102400 (Morazella Catarrhalis; [16]): +
Growth (turbidity) at Dilution 1:100 [1, 6]: −
Growth (turbidity) at Dilution 1:200 [1, 7]: −
Growth (turbidity) at Dilution 1:400 [1, 8]: +
Growth (turbidity) at Dilution 1:800 [1, 9]: +
Growth (turbidity) at Dilution 1:1600 [1, 10]: +
Growth (turbidity) at Dilution 1:3200 [1, 11]: +
Growth (turbidity) at Dilution 1:6400 [1, 12]: +
Growth (turbidity) at Dilution 1:12800 [1, 13]: +
Growth (turbidity) at Dilution 1:25600 [1, 14]: +
Growth (turbidity) at Dilution 1:51200 [1, 15]: +
Growth (turbidity) at Dilution 1:102400 [1, 16]: +
Growth (turbidity) at Dilution 1:100 [2, 6]: +
Growth (turbidity) at Dilution 1:200 [2, 7]: +
Growth (turbidity) at Dilution 1:400 [2, 8]: +
Growth (turbidity) at Dilution 1:800 [2, 9]: +
Growth (turbidity) at Dilution 1:1600 [2, 10]: +
Growth (turbidity) at Dilution 1:3200 [2, 11]: +
Growth (turbidity) at Dilution 1:6400 [2, 12]: +
Growth (turbidity) at Dilution 1:12800 [2, 13]: +
Growth (turbidity) at Dilution 1:25600 [2, 14]: +
Growth (turbidity) at Dilution 1:51200 [2, 15]: +
Growth (turbidity) at Dilution 1:102400 [2, 16]: +
Growth (turbidity) at Dilution 1:100 [3, 6]: −
Growth (turbidity) at Dilution 1:200 [3, 7]: −
Growth (turbidity) at Dilution 1:400 [3, 8]: −
Growth (turbidity) at Dilution 1:800 [3, 9]: −
Growth (turbidity) at Dilution 1:1600 [3, 10]: −
Growth (turbidity) at Dilution 1:3200 [3, 11]: −
Growth (turbidity) at Dilution 1:6400 [3, 12]: −
Growth (turbidity) at Dilution 1:12800 [3, 13]: −
Growth (turbidity) at Dilution 1:51200 [3, 15]: +
Growth (turbidity) at Dilution 1:102400 [3, 16]: +
Growth (turbidity) at Dilution 1:100 [4, 6]: −
Growth (turbidity) at Dilution 1:200 [4, 7]: −
Growth (turbidity) at Dilution 1:400 [4, 8]: −
Growth (turbidity) at Dilution 1:800 [4, 9]: −
Growth (turbidity) at Dilution 1:1600 [4, 10]: −
Growth (turbidity) at Dilution 1:3200 [4, 11]: −
Growth (turbidity) at Dilution 1:6400 [4, 12]: −
Growth (turbidity) at Dilution 1:12800 [4, 13]: −
Growth (turbidity) at Dilution 1:25600 [4, 14]: −
Growth (turbidity) at Dilution 1:51200 [4, 15]: −
Growth (turbidity) at Dilution 1:102400 [4, 16]: +
Growth (turbidity) at Dilution 1:100 [5, 6]: −
Growth (turbidity) at Dilution 1:200 [5, 7]: −
Growth (turbidity) at Dilution 1:400 [5, 8]: −
Growth (turbidity) at Dilution 1:800 [5, 9]: −
Growth (turbidity) at Dilution 1:1600 [5, 10]: −
Growth (turbidity) at Dilution 1:3200 [5, 11]: −
Growth (turbidity) at Dilution 1:6400 [5, 12]: −
Growth (turbidity) at Dilution 1:12800 [5, 13]: −
Growth (turbidity) at Dilution 1:25600 [5, 14]: −
Growth (turbidity) at Dilution 1:102400 [5, 16]: +
